Measurements from US4459232A, “Imidazo[1,2-c][1,3]benzodiazepines” (Ciba-Geigy Corporation, priority 1982, dated 1984).
pIC50: −log10 of the molar value.

Assays:
[1] = molecular target: histamine activation of adenylate cyclase; assay: inhibition of histamine activation of adenylate cyclase in vesicles of guinea pig cerebral cortex; format: biochemical; details: 50 micromolar histamine
Description: Finally, said antihistaminic properties can be shown in vitro, e.g., according to Chasin et al., J. Neurochem. 22, 1031 (1974). Vesicles from a cell free preparation of guinea pig cerebral cortex are preincubated with ^3 H-adenine to form endogenous ^3 H-adenosine triphosphate. The vesicles are then incubated with 50 micromolar histamine to activate ^3 H-cyclic adenosine monophosphate synthesis in the absence or presence of the test compound at a concentration between 0.01 and 100 micromolar. When said compound is active, it inhibits the histamine activation of adenylate cyclase. The IC50 represents the concentration at which histamine activation is inhibited by 50%.

rats = assay: conditioned avoidance behavior (lever press to avoid foot shock) in rats; format: in vivo; details: Rattus norvegicus, oral, read-out: oral dose that disrupts avoidance behavior (decreases avoidance responses)
Description: (§1) Each lever press postpones the shock for 30 seconds. Whenever the animal fails to press the lever once within said period, brief (0.5 sec.) shocks are delivered at 15 second intervals until the animal again presses the lever. Under control conditions the animals press the lever at a moderately steady rate and seldom receive more than five or six shocks during a 25-minute (rats) and up to 4-hour experimental session. Said compounds evaluated for neuroleptic activity, are administered to the animals 30, 90, 210 minutes prior to the experimental session and block the learned conditioned avoidance behavior, manifested by a decrease in avoidance responding with a marked increase in shocks taken by the animal. Both the avoidance responses and failures (shocks received) are recorded separately for evaluation.
(§2) Indicative of the antipsychotic utility of the compounds of this invention, e.g., the compound of example 1, namely 5-(4-methyl-1-piperazinyl)-11H-imidazo[1,2-c][1,3]benzodiazepine disrupts avoidance behavior, e.g. decreases avoidance responses in rats and monkeys at an oral dose of 30 mg/kg or lower.

monkey = assay: extrapyramidal side effects (dyskinesias, dystonias) in the monkey; format: in vivo
α-adrenergic = α-adrenergic blocking activity in vitro; format: biochemical
monkeys = assay: conditioned avoidance behavior (lever press to avoid foot shock) in monkeys; format: in vivo, squirrel monkey; details: Primates, oral, read-out: oral dose that disrupts avoidance behavior (decreases avoidance responses)
Description: as §1, §2

CN1CCN(C2=Nc3ccccc3Cc3nccn32)CC1 [example 1, 5-(4-methyl-1-piperazinyl)-11H-imidazo[1,2-c][1,3]benzodiazepine]
pIC50 [1]: ~6.00 | minimal effective dose (rats): ≤ 30 mg/kg | extrapyramidal side effects, e.g. dyskinesias and dystonias (monkey): essentially free of extrapyramidal side effects | α-adrenergic blocking activity (α-adrenergic): only minimal α-adrenergic blocking activity | minimal effective dose (monkeys): ≤ 30 mg/kg
